Results from publication PMC5218480 (PLoS ONE, 2017).

System: MV-4-11 cells
Assay: Gene expression microarray analysis (Affymetrix PrimeView) and GSEA
Format: cell-based, human
Set-up: RFU PODN (11730768_x_at) / Fold change /veh PODN (11730768_x_at) / RFU LINC00158 (11744669_a_at) / Fold change /veh LINC00158 (11744669_a_at) / RFU DUSP10 (11751237_a_at) / Fold change /veh DUSP10 (11751237_a_at) / RFU ID3 (11757404_x_at) / Fold change /veh ID3 (11757404_x_at) / RFU PLEKHG5 (11737974_s_at) / Fold change /veh PLEKHG5 (11737974_s_at) / RFU LRRC4B (11730491_at) / Fold change /veh LRRC4B (11730491_at) / RFU GIMAP4 (11747438_a_at) / Fold change /veh GIMAP4 (11747438_a_at) / RFU KRT8 (11758183_x_at) / Fold change /veh KRT8 (11758183_x_at) / RFU CNN1 (11734310_a_at) / Fold change /veh CNN1 (11734310_a_at) / RFU VPS37D (11726825_at) / Fold change /veh VPS37D (11726825_at) / RFU C10orf10 (11716522_x_at) / Fold change /veh C10orf10 (11716522_x_at) / RFU KIR2DL2 /// KIR2DL4 /// KIR2DL5A /// KIR2DL5B /// KIR2DS1 /// KIR2DS2 /// KIR2DS3 /// KIR2DS4 /// KIR3DL3 /// KIR3DL3 /// KIR3DS1 (11738374_at) / Fold change /veh KIR2DL2 /// KIR2DL4 /// KIR2DL5A /// KIR2DL5B /// KIR2DS1 /// KIR2DS2 /// KIR2DS3 /// KIR2DS4 /// KIR3DL3 /// KIR3DL3 /// KIR3DS1 (11738374_at) / RFU C1QL1 (11718748_at) / Fold change /veh C1QL1 (11718748_at) / RFU TMPRSS4 (11747572_a_at) / Fold change /veh TMPRSS4 (11747572_a_at) / RFU HAMP (11756126_x_at) / Fold change /veh HAMP (11756126_x_at) / RFU RNFT2 (11725882_a_at) / Fold change /veh RNFT2 (11725882_a_at) / RFU NR4A2 (11747474_a_at) / Fold change /veh NR4A2 (11747474_a_at) / RFU ABCC12 (11746883_a_at) / Fold change /veh ABCC12 (11746883_a_at) / RFU TMEM136 (11760407_x_at) / Fold change /veh TMEM136 (11760407_x_at) / RFU CLDN22 /// WWC2 (11732394_at) / Fold change /veh CLDN22 /// WWC2 (11732394_at) / RFU HLA-DPB1 (11760878_x_at) / Fold change /veh HLA-DPB1 (11760878_x_at) / RFU SPINT1 (11716480_a_at) / Fold change /veh SPINT1 (11716480_a_at) / RFU GAP43 (11754022_s_at) / Fold change /veh GAP43 (11754022_s_at) / RFU A4GNT (11735810_at) / Fold change /veh A4GNT (11735810_at) / RFU PRB3 (11715151_x_at) / Fold change /veh PRB3 (11715151_x_at) / RFU TUBB4B (11761932_at) / Fold change /veh TUBB4B (11761932_at) / RFU CAPN14 (11732068_a_at) / Fold change /veh CAPN14 (11732068_a_at) / RFU TMCC2 (11721928_a_at) / Fold change /veh TMCC2 (11721928_a_at) / RFU IRGQ (11745062_a_at) / Fold change /veh IRGQ (11745062_a_at) / RFU FAM174B (11720279_a_at) / Fold change /veh FAM174B (11720279_a_at) / RFU TMPRSS4 (11748680_a_at) / Fold change /veh TMPRSS4 (11748680_a_at) / RFU FAM212B (11763350_a_at) / Fold change /veh FAM212B (11763350_a_at) / RFU PLEKHG5 (11743358_a_at) / Fold change /veh PLEKHG5 (11743358_a_at) / RFU ZSCAN30 (11745921_a_at) / Fold change /veh ZSCAN30 (11745921_a_at) / RFU CMKLR1 (11741424_a_at) / Fold change /veh CMKLR1 (11741424_a_at) / RFU LOC101060620 /// MAPK8IP1 (11723275_at) / Fold change /veh LOC101060620 /// MAPK8IP1 (11723275_at) / RFU SPTSSB (11747773_x_at) / Fold change /veh SPTSSB (11747773_x_at) / RFU PRSS12 (11739890_at) / Fold change /veh PRSS12 (11739890_at) / RFU BIN1 (11741810_x_at) / Fold change /veh BIN1 (11741810_x_at) / RFU WNT11 (11732464_a_at) / Fold change /veh WNT11 (11732464_a_at) / RFU C10orf10 (11716521_a_at) / Fold change /veh C10orf10 (11716521_a_at) / RFU C5orf56 (11738089_at) / Fold change /veh C5orf56 (11738089_at) / RFU CYB561 (11721691_x_at) / Fold change /veh CYB561 (11721691_x_at) / RFU ANKRD19P (11752326_a_at) / Fold change /veh ANKRD19P (11752326_a_at) / RFU OR2T12 /// OR2T33 /// OR2T8 (11738714_s_at) / Fold change /veh OR2T12 /// OR2T33 /// OR2T8 (11738714_s_at) / RFU VCAN (11748164_a_at) / Fold change /veh VCAN (11748164_a_at) / RFU JSRP1 (11732532_at) / Fold change /veh JSRP1 (11732532_at) / RFU KRTAP10-11 (11738290_x_at) / Fold change /veh KRTAP10-11 (11738290_x_at) / RFU MYO3A (11730013_a_at) / Fold change /veh MYO3A (11730013_a_at) / RFU EBF3 (11725865_a_at) / Fold change /veh EBF3 (11725865_a_at) / RFU CAMK2N1 (11719241_x_at) / Fold change /veh CAMK2N1 (11719241_x_at) / RFU C5orf56 (11738088_a_at) / Fold change /veh C5orf56 (11738088_a_at) / RFU OLFML3 (11715873_a_at) / Fold change /veh OLFML3 (11715873_a_at) / RFU LOC100653217 /// NTM (11731650_a_at) / Fold change /veh LOC100653217 /// NTM (11731650_a_at) / RFU MAPK11 (11762145_a_at) / Fold change /veh MAPK11 (11762145_a_at) / RFU FIZ1 (11724087_x_at) / Fold change /veh FIZ1 (11724087_x_at) / RFU OASL (11726364_x_at) / Fold change /veh OASL (11726364_x_at) / RFU SOX15 (11748057_x_at) / Fold change /veh SOX15 (11748057_x_at) / RFU CD79A (11719716_a_at) / Fold change /veh CD79A (11719716_a_at) / RFU HIST1H1D (11736915_at) / Fold change /veh HIST1H1D (11736915_at) / RFU CASKIN2 (11723855_a_at) / Fold change /veh CASKIN2 (11723855_a_at) / RFU LOC730098 (11760151_x_at) / Fold change /veh LOC730098 (11760151_x_at) / RFU OR4N2 (11742367_at) / Fold change /veh OR4N2 (11742367_at) / RFU PRRT2 (11749266_a_at) / Fold change /veh PRRT2 (11749266_a_at) / RFU SNX32 (11753110_a_at) / Fold change /veh SNX32 (11753110_a_at) / RFU CDHR5 (11726645_a_at) / Fold change /veh CDHR5 (11726645_a_at) / RFU RCAN1 (11760418_a_at) / Fold change /veh RCAN1 (11760418_a_at) / RFU FAM167A (11723789_a_at) / Fold change /veh FAM167A (11723789_a_at) / RFU FAM26E (11764081_at) / Fold change /veh FAM26E (11764081_at) / RFU ISYNA1 (11749810_s_at) / Fold change /veh ISYNA1 (11749810_s_at) / RFU ACY1 (11761880_at) / Fold change /veh ACY1 (11761880_at) / RFU 11764098_at / Fold change /veh 11764098_at / RFU SAMD14 (11745864_x_at) / Fold change /veh SAMD14 (11745864_x_at) / RFU NPB (11741838_a_at) / Fold change /veh NPB (11741838_a_at) / RFU TMPRSS6 (11731388_a_at) / Fold change /veh TMPRSS6 (11731388_a_at) / RFU KRTAP10-2 (11738614_at) / Fold change /veh KRTAP10-2 (11738614_at) / RFU ARHGAP8 /// PRR5-ARHGAP8 (11727945_x_at) / Fold change /veh ARHGAP8 /// PRR5-ARHGAP8 (11727945_x_at) / RFU KRTAP5-7 /// NADSYN1 (11734609_at) / Fold change /veh KRTAP5-7 /// NADSYN1 (11734609_at) / RFU RASL12 (11751679_a_at) / Fold change /veh RASL12 (11751679_a_at) / RFU CDKN2B (11736163_a_at) / Fold change /veh CDKN2B (11736163_a_at) / RFU PRF1 (11729649_at) / Fold change /veh PRF1 (11729649_at) / RFU, ZNF638 /// ZNF638-IT1 / Fold change vs veh, ZNF638 /// ZNF638-IT1 / RFU, PANK3 / Fold change vs veh, PANK3 / RFU, SH3YL1 / Fold change vs veh, SH3YL1 / RFU, ZEB2 / Fold change vs veh, ZEB2 / RFU, NRIP1 / Fold change vs veh, NRIP1 / RFU, PTTG1IP / Fold change vs veh, PTTG1IP / RFU, CAPN2 / Fold change vs veh, CAPN2 / RFU, MED14 / Fold change vs veh, MED14 / RFU, SNORA58 / Fold change vs veh, SNORA58 / RFU, C1orf63 / Fold change vs veh, C1orf63 / RFU, LRRFIP1 / Fold change vs veh, LRRFIP1 / RFU, NDUFAF7 / Fold change vs veh, NDUFAF7 / RFU, SLC12A2 / Fold change vs veh, SLC12A2 / RFU, IBTK / Fold change vs veh, IBTK / RFU, ESF1 / Fold change vs veh, ESF1 / Fold change vs veh, TMEM50B / RFU, TAOK1 / Fold change vs veh, TAOK1 / RFU, ACBD3 / Fold change vs veh, ACBD3 / RFU, TMA16 / Fold change vs veh, TMA16 / RFU, RWDD3 / Fold change vs veh, RWDD3 / RFU, BCAT1 / Fold change vs veh, BCAT1 / RFU, EDEM3 / Fold change vs veh, EDEM3 / RFU, TMEM33 / Fold change vs veh, TMEM33 / RFU, WDR75 / Fold change vs veh, WDR75 / RFU, AHCTF1 / Fold change vs veh, AHCTF1 / RFU, TFRC / Fold change vs veh, TFRC / RFU, ZDHHC17 / Fold change vs veh, ZDHHC17 / RFU, NOM1 / Fold change vs veh, NOM1 / RFU, ARL8B / Fold change vs veh, ARL8B / RFU, ZBTB11 / Fold change vs veh, ZBTB11 / RFU, TAMM41 / Fold change vs veh, TAMM41 / RFU, KIAA1704 /// LOC100996395 / Fold change vs veh, KIAA1704 /// LOC100996395 / RFU, ING1 / Fold change vs veh, ING1 / RFU, TRMT61B / Fold change vs veh, TRMT61B / RFU, FUBP3 / Fold change vs veh, FUBP3 / RFU, TP53 / Fold change vs veh, TP53 / RFU, TNKS2 / Fold change vs veh, TNKS2 / RFU, ZFP14 / Fold change vs veh, ZFP14 / RFU, ACTR2 / Fold change vs veh, ACTR2 / RFU, PPP3R1 / Fold change vs veh, PPP3R1 / RFU, PIK3R1 / Fold change vs veh, PIK3R1 / RFU, HNRNPA1 / Fold change vs veh, HNRNPA1 / RFU, RNF170 / Fold change vs veh, RNF170 / RFU, ZNF28 / Fold change vs veh, ZNF28 / RFU, RNGTT / Fold change vs veh, RNGTT / RFU, OGT / Fold change vs veh, OGT / RFU, BRD1 / Fold change vs veh, BRD1 / RFU, MARS / Fold change vs veh, MARS / RFU, ZNF655 / Fold change vs veh, ZNF655 / RFU, FAHD1 / Fold change vs veh, FAHD1 / RFU, BDP1 / Fold change vs veh, BDP1 / RFU, LRRCC1 / Fold change vs veh, LRRCC1 / RFU, ARID1A / Fold change vs veh, ARID1A / RFU, ZNF146 / Fold change vs veh, ZNF146 / RFU, ZNF330 / Fold change vs veh, ZNF330 / RFU, GPN3 / Fold change vs veh, GPN3 / RFU, C9orf123 / Fold change vs veh, C9orf123 / RFU, N4BP2L2 / Fold change vs veh, N4BP2L2 / RFU, ARFIP1 / Fold change vs veh, ARFIP1 / RFU, FAM179B / Fold change vs veh, FAM179B / RFU, BCL10 / Fold change vs veh, BCL10 / RFU, UHRF1BP1L / Fold change vs veh, UHRF1BP1L / RFU, BET1 / Fold change vs veh, BET1 / RFU, CNOT2 / Fold change vs veh, CNOT2 / RFU, ZNF268 / Fold change vs veh, ZNF268 / Fold change vs veh, ZNF507 / RFU, DGCR2 / Fold change vs veh, DGCR2 / RFU, WDSUB1 / Fold change vs veh, WDSUB1 / Fold change vs veh, HSP90B1 /// MIR3652 / RFU, ADSS / Fold change vs veh, ADSS / RFU, GK / Fold change vs veh, GK / RFU, ZNF148 / Fold change vs veh, ZNF148 / RFU, TAF9 / Fold change vs veh, TAF9 / RFU, SLC1A5 / Fold change vs veh, SLC1A5 / RFU, SLMO2 / Fold change vs veh, SLMO2 / RFU, ABCC4 / Fold change vs veh, ABCC4 / RFU, LOC101060439 /// RAP1B / Fold change vs veh, LOC101060439 /// RAP1B / RFU, RFX7 / Fold change vs veh, RFX7 / RFU, GTPBP10 / Fold change vs veh, GTPBP10 / RFU, CNEP1R1 / Fold change vs veh, CNEP1R1 / RFU, BIVM-ERCC5 /// ERCC5 / Fold change vs veh, BIVM-ERCC5 /// ERCC5 / RFU, ILF3 / Fold change vs veh, ILF3 / RFU 11762660_at / Fold change /veh 11762660_at / RFU VCAN (11757783_s_at) / Fold change /veh VCAN (11757783_s_at) / RFU DDX43 (11728927_at) / Fold change /veh DDX43 (11728927_at) / RFU KRT8 (11758188_x_at) / Fold change /veh KRT8 (11758188_x_at) / RFU NKD1 (11759106_at) / Fold change /veh NKD1 (11759106_at) / RFU SRD5A1 (11742802_a_at) / Fold change /veh SRD5A1 (11742802_a_at) / RFU TPSAB1 /// TPSB2 (11721975_s_at) / Fold change /veh TPSAB1 /// TPSB2 (11721975_s_at) / RFU GSTM3 (11746129_a_at) / Fold change /veh GSTM3 (11746129_a_at) / RFU IL23R (11737362_x_at) / Fold change /veh IL23R (11737362_x_at) / RFU TMEM51 (11727254_a_at) / Fold change /veh TMEM51 (11727254_a_at) / RFU PIWIL2 (11732686_x_at) / Fold change /veh PIWIL2 (11732686_x_at) / RFU ORM1 (11744905_x_at) / Fold change /veh ORM1 (11744905_x_at) / RFU CCDC152 (11743942_at) / Fold change /veh CCDC152 (11743942_at) / RFU ECM1 (11717891_a_at) / Fold change /veh ECM1 (11717891_a_at) / RFU IL23R (11748794_a_at) / Fold change /veh IL23R (11748794_a_at) / RFU TNFAIP8L3 (11732012_x_at) / Fold change /veh TNFAIP8L3 (11732012_x_at) / RFU MBOAT4 (11741988_at) / Fold change /veh MBOAT4 (11741988_at) / RFU 11764193_at / Fold change /veh 11764193_at / RFU TMEM53 (11763286_at) / Fold change /veh TMEM53 (11763286_at) / RFU MAGEB2 (11727129_at) / Fold change /veh MAGEB2 (11727129_at) / RFU TMEM200A (11744735_a_at) / Fold change /veh TMEM200A (11744735_a_at) / RFU CCDC152 (11751479_a_at) / Fold change /veh CCDC152 (11751479_a_at) / RFU FAM211A (11726209_a_at) / Fold change /veh FAM211A (11726209_a_at) / RFU RGS16 (11746705_a_at) / Fold change /veh RGS16 (11746705_a_at) / RFU VCAN (11755009_s_at) / Fold change /veh VCAN (11755009_s_at) / RFU RHOB (11743442_s_at) / Fold change /veh RHOB (11743442_s_at) / RFU RGS16 (11720943_a_at) / Fold change /veh RGS16 (11720943_a_at) / RFU RGS16 (11720944_at) / Fold change /veh RGS16 (11720944_at) / RFU, VPS4B / Fold change vs veh, VPS4B / RFU, CREB1 / Fold change vs veh, CREB1 / RFU, DNAJC13 / Fold change vs veh, DNAJC13 / RFU, GNAQ / Fold change vs veh, GNAQ / RFU, CDK5R1 / Fold change vs veh, CDK5R1 / RFU, ZRANB3 / Fold change vs veh, ZRANB3 / RFU, CUL4A / Fold change vs veh, CUL4A / RFU, CCNY / Fold change vs veh, CCNY / RFU, UFL1 / Fold change vs veh, UFL1 / RFU, COG3 / Fold change vs veh, COG3 / RFU, DIAPH2 / Fold change vs veh, DIAPH2 / RFU, SKA2 / Fold change vs veh, SKA2 / RFU, AFF3 / Fold change vs veh, AFF3 / RFU, LMF1 / Fold change vs veh, LMF1 / RFU, IPO11 / Fold change vs veh, IPO11 / RFU, DFFB / Fold change vs veh, DFFB / RFU, FOXP1 / Fold change vs veh, FOXP1 / RFU, CARD8 / Fold change vs veh, CARD8 / RFU, STRN3 / Fold change vs veh, STRN3 / RFU, ADK / Fold change vs veh, ADK / RFU, RASSF2 / Fold change vs veh, RASSF2 / RFU, WIPF1 / Fold change vs veh, WIPF1 / RFU, LARP1B / Fold change vs veh, LARP1B / RFU, RASA1 / Fold change vs veh, RASA1 / RFU, RB1 / Fold change vs veh, RB1 / RFU, PPFIA1 / Fold change vs veh, PPFIA1 / RFU, MAT2A / Fold change vs veh, MAT2A / RFU, CCT5 / Fold change vs veh, CCT5 / RFU, WDR92 / Fold change vs veh, WDR92 / RFU, CUX1 / Fold change vs veh, CUX1 / RFU, TTC7A / Fold change vs veh, TTC7A / RFU, TMEM135 / Fold change vs veh, TMEM135 / RFU, DEPTOR / Fold change vs veh, DEPTOR / RFU, CPM / Fold change vs veh, CPM / RFU, DNAJB6 / Fold change vs veh, DNAJB6 / RFU, CACNA2D3 / Fold change vs veh, CACNA2D3 / RFU, DTX4 / Fold change vs veh, DTX4 / RFU, TFCP2 / Fold change vs veh, TFCP2 / RFU, GMCL1 /// GMCL1P1 / Fold change vs veh, GMCL1 /// GMCL1P1 / RFU, AEBP2 / Fold change vs veh, AEBP2 / RFU, SNHG1 /// SNORD22 /// SNORD25 /// SNORD26 /// SNORD27 /// SNORD28 /// SNORD29 /// SNORD31 / Fold change vs veh, SNHG1 /// SNORD22 /// SNORD25 /// SNORD26 /// SNORD27 /// SNORD28 /// SNORD29 /// SNORD31 / Fold change (Aza/veh), C12orf56 (ProbeSet 11735607_a_at) / Fold change (ACY-1035/veh), C12orf56 (ProbeSet 11735607_a_at) / Fold change (Aza/veh), FGFR1OP (ProbeSet 11751329_s_at) / Fold change (ACY-1035/veh), FGFR1OP (ProbeSet 11751329_s_at) / Fold change (Aza/veh), VPS36 (ProbeSet 11739960_a_at) / Fold change (ACY-1035/veh), VPS36 (ProbeSet 11739960_a_at) / RFU SYPL1 (11715823_x_at) / Fold change /veh SYPL1 (11715823_x_at) / RFU IGFBP7 (11715501_s_at) / Fold change /veh IGFBP7 (11715501_s_at) / RFU REEP3 (11722064_at) / Fold change /veh REEP3 (11722064_at) / RFU IGLL1 (11728026_x_at) / Fold change /veh IGLL1 (11728026_x_at): dose or concentration left out as unconfirmed
Settings: MV-4-11 cells, 48 hours

Nc1ccc(-c2cccs2)cc1NC(=O)c1ccc2c(c1)cc(C1CC1)n2CCN1CCOCC1 [ACY-1035]
Fold change /veh PLEKHG5 (11737974_s_at): 1.09
